Results taken from patent US8895756B2, “Bendamustine pharmaceutical compositions” (priority 2005, dated 2014).

Experiment: HPLC stability of bendamustine (15 mg/mL, mannitol 25.5 mg/mL) in alcohol/water solutions at 5° C.
Assay type: physicochemical
Conditions: 5° C.
Procedure: A sample of each formulation was analyzed by HPLC after 0, 3, 6 and 24 hours when stored at 5° C.

For Cl.Cn1c(CCCC(=O)O)nc2cc(N(CCCl)CCCl)ccc21 [bendamustine, 4-{5-[Bis(2-chloroethyl)amino]-1-methyl-2-benzimidazolyl}butyric acid], the “Dimer (%)” value (1.9% Ethanol, 0 hours) was 0.12%, the “HP1 (%)” value (1.9% Ethanol, 0 hours) was 0.64% and the “Purity (% Area)” value (1.9% Ethanol, 0 hours) was 99.11 % Area. For the same molecule, the “Dimer (%)” value (1.9% Ethanol, 3 hours) was 0.14%, the “HP1 (%)” value (1.9% Ethanol, 3 hours) was 0.90% and the “Purity (% Area)” value (1.9% Ethanol, 3 hours) was 98.83 % Area. The “Dimer (%)” value (1.9% Ethanol, 6 hours) was 0.15%, the “HP1 (%)” value (1.9% Ethanol, 6 hours) was 1.12% and the “Purity (% Area)” value (1.9% Ethanol, 6 hours) was 98.60 % Area. For the same molecule, the “Dimer (%)” value (1.9% Ethanol, 24 hours) was 0.27%, the “HP1 (%)” value (1.9% Ethanol, 24 hours) was 3.41% and the “Purity (% Area)” value (1.9% Ethanol, 24 hours) was 96.16 % Area. The “Dimer (%)” value (5% Butanol, 0 hours) was 0.13%, the “HP1 (%)” value (5% Butanol, 0 hours) was 0.49% and the “Dimer (%)” value (5% Butanol, 3 hours) was 0.14%. For the same molecule, the “Dimer (%)” value (5% Butanol, 6 hours) was 0.14%, the “HP1 (%)” value (5% Butanol, 6 hours) was 0.91% and the “Purity (% Area)” value (5% Butanol, 6 hours) was 98.76 % Area. The “Dimer (%)” value (5% Butanol, 24 hours) was 0.21%, the “HP1 (%)” value (5% Butanol, 24 hours) was 2.20% and the “Purity (% Area)” value (5% Butanol, 24 hours) was 97.46 % Area. For the same molecule, the “Dimer (%)” value (5% Ethanol, 0 hours) was 0.12%, the “HP1 (%)” value (5% Ethanol, 0 hours) was 0.44% and the “Purity (% Area)” value (5% Ethanol, 0 hours) was 99.31 % Area. For the same molecule, the “Dimer (%)” value (5% Ethanol, 3 hours) was 0.13%, the “HP1 (%)” value (5% Ethanol, 3 hours) was 0.64% and the “Purity (% Area)” value (5% Ethanol, 3 hours) was 99.10 % Area. The “Dimer (%)” value (5% Ethanol, 6 hours) was 0.14%, the “HP1 (%)” value (5% Ethanol, 6 hours) was 0.86% and the “Purity (% Area)” value (5% Ethanol, 6 hours) was 98.87 % Area. For the same molecule, the “Dimer (%)” value (5% Ethanol, 24 hours) was 0.25%, the “HP1 (%)” value (5% Ethanol, 24 hours) was 2.68% and the “Purity (% Area)” value (5% Ethanol, 24 hours) was 96.89 % Area. The “Dimer (%)” value (5% Iso-propanol, 0 hours) was 0.13%, the “HP1 (%)” value (5% Iso-propanol, 0 hours) was 0.48% and the “Purity (% Area)” value (5% Iso-propanol, 0 hours) was 99.21 % Area. The “Dimer (%)” value (5% Iso-propanol, 3 hours) was 0.14%, the “HP1 (%)” value (5% Iso-propanol, 3 hours) was 0.72% and the “Purity (% Area)” value (5% Iso-propanol, 3 hours) was 98.65 % Area. The “Dimer (%)” value (5% Iso-propanol, 6 hours) was 0.14%, the “HP1 (%)” value (5% Iso-propanol, 6 hours) was 1.02% and the “Purity (% Area)” value (5% Iso-propanol, 6 hours) was 98.56 % Area. For the same molecule, the “Dimer (%)” value (5% Iso-propanol, 24 hours) was 0.26%, the “HP1 (%)” value (5% Iso-propanol, 24 hours) was 3.35% and the “Purity (% Area)” value (5% Iso-propanol, 24 hours) was 96.14 % Area. For the same molecule, the “Dimer (%)” value (5% Methanol, 0 hours) was 0.12%, the “HP1 (%)” value (5% Methanol, 0 hours) was 0.40% and the “Purity (% Area)” value (5% Methanol, 0 hours) was 99.35 % Area. For the same molecule, the “Dimer (%)” value (5% Methanol, 3 hours) was 0.14%, the “HP1 (%)” value (5% Methanol, 3 hours) was 0.70% and the “Purity (% Area)” value (5% Methanol, 3 hours) was 98.97 % Area. For the same molecule, the “Dimer (%)” value (5% Methanol, 6 hours) was 0.14%, the “HP1 (%)” value (5% Methanol, 6 hours) was 0.95% and the “Purity (% Area)” value (5% Methanol, 6 hours) was 98.66 % Area. The “Dimer (%)” value (5% Methanol, 24 hours) was 0.23%, the “HP1 (%)” value (5% Methanol, 24 hours) was 2.83% and the “Purity (% Area)” value (5% Methanol, 24 hours) was 96.65 % Area. For the same molecule, the “Dimer (%)” value (5% Tert-butanol, 0 hours) was 0.12%, the “HP1 (%)” value (5% Tert-butanol, 0 hours) was 0.41% and the “Purity (% Area)” value (5% Tert-butanol, 0 hours) was 99.34 % Area. The “Dimer (%)” value (5% Tert-butanol, 3 hours) was 0.14%, the “HP1 (%)” value (5% Tert-butanol, 3 hours) was 0.64% and the “Purity (% Area)” value (5% Tert-butanol, 3 hours) was 99.10 % Area. The “Dimer (%)” value (5% Tert-butanol, 6 hours) was 0.13%, the “HP1 (%)” value (5% Tert-butanol, 6 hours) was 0.88% and the “Purity (% Area)” value (5% Tert-butanol, 6 hours) was 98.85 % Area. The “Dimer (%)” value (5% Tert-butanol, 24 hours) was 0.20%, the “HP1 (%)” value (5% Tert-butanol, 24 hours) was 2.09% and the “Purity (% Area)” value (5% Tert-butanol, 24 hours) was 97.58 % Area. For the same molecule, the “Dimer (%)” value (5% n-Propanol, 0 hours) was 0.13%, the “HP1 (%)” value (5% n-Propanol, 0 hours) was 0.43% and the “Purity (% Area)” value (5% n-Propanol, 0 hours) was 99.25 % Area. The “Dimer (%)” value (5% n-Propanol, 3 hours) was 0.15%, the “HP1 (%)” value (5% n-Propanol, 3 hours) was 0.66% and the “Purity (% Area)” value (5% n-Propanol, 3 hours) was 99.00 % Area. For the same molecule, the “Dimer (%)” value (5% n-Propanol, 6 hours) was 0.16%, the “HP1 (%)” value (5% n-Propanol, 6 hours) was 0.94% and the “Purity (% Area)” value (5% n-Propanol, 6 hours) was 98.72 % Area. The “Dimer (%)” value (5% n-Propanol, 24 hours) was 0.26%, the “HP1 (%)” value (5% n-Propanol, 24 hours) was 2.33% and the “Purity (% Area)” value (5% n-Propanol, 24 hours) was 97.24 % Area. The “Dimer (%)” value (10% Butanol, 0 hours) was 0.11%, the “HP1 (%)” value (10% Butanol, 0 hours) was 0.30% and the “Purity (% Area)” value (10% Butanol, 0 hours) was 99.44 % Area. For the same molecule, the “Dimer (%)” value (10% Butanol, 3 hours) was 0.12%, the “HP1 (%)” value (10% Butanol, 3 hours) was 0.49% and the “Purity (% Area)” value (10% Butanol, 3 hours) was 99.18 % Area. For the same molecule, the “Dimer (%)” value (10% Butanol, 6 hours) was 0.12%, the “HP1 (%)” value (10% Butanol, 6 hours) was 0.64% and the “Purity (% Area)” value (10% Butanol, 6 hours) was 99.03 % Area. For the same molecule, the “Dimer (%)” value (10% Butanol, 24 hours) was 0.17%, the “HP1 (%)” value (10% Butanol, 24 hours) was 1.55% and the “Purity (% Area)” value (10% Butanol, 24 hours) was 98.13 % Area. The “Dimer (%)” value (10% Ethanol, 0 hours) was 0.11%, the “HP1 (%)” value (10% Ethanol, 0 hours) was 0.33% and the “Purity (% Area)” value (10% Ethanol, 0 hours) was 99.44 % Area. The “Dimer (%)” value (10% Ethanol, 3 hours) was 0.12%, the “HP1 (%)” value (10% Ethanol, 3 hours) was 0.48% and the “Purity (% Area)” value (10% Ethanol, 3 hours) was 99.28 % Area. The “Dimer (%)” value (10% Ethanol, 6 hours) was 0.12%, the “HP1 (%)” value (10% Ethanol, 6 hours) was 0.65% and the “Purity (% Area)” value (10% Ethanol, 6 hours) was 99.10 % Area. The “Dimer (%)” value (10% Ethanol, 24 hours) was 0.18%, the “HP1 (%)” value (10% Ethanol, 24 hours) was 1.57% and the “Purity (% Area)” value (10% Ethanol, 24 hours) was 98.03 % Area. For the same molecule, the “Dimer (%)” value (10% Iso-propanol, 0 hours) was 0.12%, the “HP1 (%)” value (10% Iso-propanol, 0 hours) was 0.37% and the “Purity (% Area)” value (10% Iso-propanol, 0 hours) was 99.32 % Area. The “Dimer (%)” value (10% Iso-propanol, 3 hours) was 0.14%, the “HP1 (%)” value (10% Iso-propanol, 3 hours) was 0.55% and the “Purity (% Area)” value (10% Iso-propanol, 3 hours) was 99.11 % Area. For the same molecule, the “Dimer (%)” value (10% Iso-propanol, 6 hours) was 0.16%, the “HP1 (%)” value (10% Iso-propanol, 6 hours) was 0.75% and the “Purity (% Area)” value (10% Iso-propanol, 6 hours) was 98.85 % Area. The “Dimer (%)” value (10% Iso-propanol, 24 hours) was 0.21%, the “HP1 (%)” value (10% Iso-propanol, 24 hours) was 1.92% and the “Purity (% Area)” value (10% Iso-propanol, 24 hours) was 97.68 % Area. For the same molecule, the “Dimer (%)” value (10% Methanol, 0 hours) was 0.11%, the “HP1 (%)” value (10% Methanol, 0 hours) was 0.34% and the “Purity (% Area)” value (10% Methanol, 0 hours) was 99.42 % Area. For the same molecule, the “Dimer (%)” value (10% Methanol, 3 hours) was 0.12%, the “HP1 (%)” value (10% Methanol, 3 hours) was 0.59% and the “Purity (% Area)” value (10% Methanol, 3 hours) was 99.01 % Area. For the same molecule, the “Dimer (%)” value (10% Methanol, 6 hours) was 0.12%, the “HP1 (%)” value (10% Methanol, 6 hours) was 0.80% and the “Purity (% Area)” value (10% Methanol, 6 hours) was 98.86 % Area. The “Dimer (%)” value (10% Methanol, 24 hours) was 0.18%, the “HP1 (%)” value (10% Methanol, 24 hours) was 1.85% and the “Purity (% Area)” value (10% Methanol, 24 hours) was 97.65 % Area. The “Dimer (%)” value (10% Tert-butanol, 0 hours) was 0.11%, the “HP1 (%)” value (10% Tert-butanol, 0 hours) was 0.30% and the “Purity (% Area)” value (10% Tert-butanol, 0 hours) was 99.46 % Area. The “Dimer (%)” value (10% Tert-butanol, 3 hours) was 0.12%, the “HP1 (%)” value (10% Tert-butanol, 3 hours) was 0.48% and the “Purity (% Area)” value (10% Tert-butanol, 3 hours) was 99.26 % Area. For the same molecule, the “Dimer (%)” value (10% Tert-butanol, 6 hours) was 0.13%, the “HP1 (%)” value (10% Tert-butanol, 6 hours) was 0.69% and the “Purity (% Area)” value (10% Tert-butanol, 6 hours) was 99.05 % Area. The “Dimer (%)” value (10% Tert-butanol, 24 hours) was 0.19%, the “HP1 (%)” value (10% Tert-butanol, 24 hours) was 1.64% and the “Purity (% Area)” value (10% Tert-butanol, 24 hours) was 98.04 % Area. The “Dimer (%)” value (10% n-Propanol, 0 hours) was 0.15%, the “HP1 (%)” value (10% n-Propanol, 0 hours) was 0.33% and the “Purity (% Area)” value (10% n-Propanol, 0 hours) was 99.34 % Area. For the same molecule, the “Dimer (%)” value (10% n-Propanol, 3 hours) was 0.14%, the “HP1 (%)” value (10% n-Propanol, 3 hours) was 0.48% and the “Purity (% Area)” value (10% n-Propanol, 3 hours) was 99.17 % Area. For the same molecule, the “Dimer (%)” value (10% n-Propanol, 6 hours) was 0.16%.
